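These data come from cells grown in 96-well plates and exposed to compound for 48 hours at five concentrations. GI50 is the concentration that inhibits growth by half. At the TGI there is no net growth.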
How the values were obtained:
Test in all cases: inhibition of tumour cell growth, NCI panel, 48 h
[1] = test system: HOP-92 NSCLC
[2] = test system: BT-549 breast
[3] = test system: MCF7 breast
[4] = test system: OVCAR-8 ovarian
[5] = test system: TK-10 renal
[6] = test system: UO-31 renal
[7] = test system: SF-539 CNS
[8] = test system: SNB-19 CNS
[9] = test system: NCI-H226 lung
[10] = test system: HL-60(TB) leukemia
[11] = test system: HS 578T breast
[12] = test system: A549 NSCLC
[13] = test system: EKVX NSCLC
[14] = test system: HOP-62 NSCLC
[15] = test system: SF-268 CNS
[16] = test system: COLO 205 colon
[17] = test system: SK-MEL-5 melanoma
[18] = test system: SNB-75 CNS
[19] = test system: DU-145 prostate
[20] = test system: NCI-H460 lung
[21] = test system: MOLT-4 leukemia
[22] = test system: CCRF-CEM leukemia
[23] = test system: SF-295 CNS
[24] = test system: NCI-H522 lung
[25] = test system: SK-MEL-2 melanoma
[26] = test system: T-47D breast
[27] = test system: RXF 393 renal
[28] = test system: OVCAR-3 ovarian
[29] = test system: U251 CNS

CS(=O)(=O)c1nccc(-c2c(-c3ccc(F)c(OCCc4ccccc4)c3)nc3sccn23)n1
GI50 [1]: 8.62 µM | TGI [1]: 22.1 µM | GI50 [2]: 15.6 µM | TGI [2]: 30.1 µM | GI50 [3]: 4.29 µM | TGI [3]: 18.7 µM | GI50 [4]: 16.7 µM | TGI [4]: 33.2 µM | GI50 [5]: 15.4 µM | TGI [5]: 29.7 µM | GI50 [6]: 14.1 µM | TGI [6]: 27.1 µM | GI50 [7]: 16.3 µM | TGI [7]: 30.3 µM | GI50 [8]: 16.2 µM | TGI [8]: 31.6 µM | GI50 [9]: 14.1 µM | TGI [9]: 27.8 µM | GI50 [10]: 5.17 µM | TGI [10]: 22.2 µM | GI50 [11]: 17.2 µM | TGI [11]: 42.9 µM | GI50 [12]: 17.1 µM | TGI [12]: 33.5 µM | GI50 [13]: 15.8 µM | TGI [13]: 29.2 µM | GI50 [14]: 17 µM | TGI [14]: 32.9 µM | GI50 [15]: 16.4 µM | TGI [15]: 33.1 µM | GI50 [16]: 19.1 µM | TGI [16]: 37.7 µM | GI50 [17]: 17.2 µM | TGI [17]: 31.8 µM | GI50 [18]: 11.8 µM | TGI [18]: 24 µM | GI50 [19]: 4.3 µM | TGI [19]: 14.8 µM | GI50 [20]: 14 µM | TGI [20]: 30 µM | GI50 [21]: 17.5 µM | TGI [21]: 39.7 µM | GI50 [22]: 19.1 µM | TGI [22]: 45.6 µM | GI50 [23]: 18.5 µM | TGI [23]: 33.3 µM | GI50 [24]: 13.5 µM | TGI [24]: 30.7 µM | GI50 [25]: 15.8 µM | TGI [25]: 30.5 µM | GI50 [26]: 10.3 µM | TGI [26]: 25.7 µM | GI50 [27]: 14.4 µM | TGI [27]: 27.6 µM | GI50 [28]: 15.4 µM | TGI [28]: 29 µM | GI50 [29]: 16.6 µM

— PubChem BioAssay (NCI)
